According to ChEMBL document CHEMBL1201862, “PubChem BioAssay data set” (2004):
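These data come from cells grown in 96-well plates and exposed to compound for 48 hours at five concentrations. The concentration for 50% growth inhibition is given as GI50.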 The source made the active and inactive calls. Rule as the data show it: active = GI50 up to about 1.1 µM and inactive = higher.

How the values were obtained:
Experiment in all cases: NCI tumour cell line growth inhibition, 48 h
SK-OV-3 = system: SK-OV-3
HCT-116 = system: HCT-116
HCT-15 = system: HCT-15
M14 = system: M14
LXFL 529 = system: LXFL 529
NCI/ADR-RES = system: NCI/ADR-RES
K562 = system: K562
SK-MEL-2 = system: SK-MEL-2
NCI-H522 = system: NCI-H522
A498 = system: A498
OVCAR-8 = system: OVCAR-8
T47D = system: T47D
BT-549 = system: BT-549
IGROV-1 = system: IGROV-1
EKVX = system: EKVX
Hs-578T = system: Hs-578T
PC-3 = system: PC-3
MOLT-4 = system: MOLT-4
786-0 = system: 786-0
RXF 393 = system: RXF 393

`CC(=O)C1(O)Cc2c(O)c3c(c(O)c2C(OC2CC(N)C(O)C(C)O2)C1)C(=O)c1ccccc1C3=O` (centres undefined) was tested, and the GI50 (SK-OV-3) was 0.161 µM (active), the GI50 (HCT-116) was 0.0279 µM (active) and the GI50 (HCT-15) was 0.0277 µM. The GI50 (M14) was 0.0452 µM (active), the GI50 (LXFL 529) was < 0.0219 µM (active) and the GI50 (NCI/ADR-RES) was 0.297 µM (active). The GI50 (K562) was 0.083 µM (active), the GI50 (SK-MEL-2) was 0.415 µM (active) and the GI50 (NCI-H522) was 0.015 µM (active). The GI50 (A498) was 0.0115 µM (active), the GI50 (OVCAR-8) was 0.0327 µM (active) and the GI50 (T47D) was 0.0497 µM (active). The GI50 (BT-549) was 0.134 µM (active), the GI50 (IGROV-1) was 0.0243 µM (active) and the GI50 (EKVX) was 0.193 µM (active). For the same compound, the GI50 (Hs-578T) was 0.254 µM (active), the GI50 (PC-3) was 0.247 µM (active) and the GI50 (MOLT-4) was 0.01 µM (active). For the same compound, the GI50 (786-0) was 0.0152 µM (active).

In the case of `O=C(NP(=O)(N1CC1)N1CC1)c1cc(I)ccc1I` [DIIODBENZOTEPH], the GI50 (SK-OV-3) is reported as 25.6 µM (inactive), the GI50 (HCT-116) is reported as 40.3 µM (inactive) and the GI50 (HCT-15) is reported as 69.3 µM. The GI50 (RXF 393) was 34.6 µM (inactive), the GI50 (M14) was 34.8 µM (inactive) and the GI50 (LXFL 529) was > 100 µM (inactive). The GI50 (NCI/ADR-RES) was 23.3 µM (inactive), the GI50 (K562) was 59 µM (inactive) and the GI50 (SK-MEL-2) was 61 µM (inactive). The GI50 (NCI-H522) was 27.3 µM (inactive), the GI50 (A498) was 64.4 µM (inactive) and the GI50 (OVCAR-8) was 31.2 µM (inactive). The GI50 (T47D) was 22.9 µM (inactive), the GI50 (BT-549) was 53.7 µM (inactive) and the GI50 (IGROV-1) was 40.6 µM (inactive). The GI50 (EKVX) was 78 µM (inactive), the GI50 (Hs-578T) was 98.9 µM (inactive) and the GI50 (PC-3) was > 67.3 µM (inactive). For the same compound, the GI50 (MOLT-4) was 5.58 µM (inactive) and the GI50 (786-0) was 21.9 µM (inactive).
